# Experimental data published in BindingDB's records for doi:10.1016/j.bmcl.2014.06.076 (Genentech, 2014).
# pIC50: −log10 of the molar value.
# Biological target: L-lactate dehydrogenase A chain (Homo sapiens, UniProt P00338)
# Experiment: Inhibition of human recombinant carboxy-terminal His-tagged LDHA by UV endpoint assay
row,SMILES,pIC50
1,O=C1CC(c2ccccc2Cl)CC(O)=C1Sc1ccccc1Cl (centres undefined),< 4.00
2,O=C1CC(c2cccc(Cl)c2)CC(O)=C1Sc1ccccc1Cl (centres undefined),< 4.00
3,O=C1CC(c2ccc(Cl)cc2)CC(O)=C1Sc1ccccc1Cl (centres undefined),< 4.00
4,COc1ccc(C2CC(=O)C(Sc3ccccc3Cl)=C(O)C2)cc1 (centres undefined),< 4.00
5,O=C1CC(c2c(Cl)cccc2Br)CC(O)=C1Sc1ccccc1Cl (centres undefined),< 4.00
6,O=C1CC(c2c(F)cccc2F)CC(O)=C1Sc1ccccc1Cl (centres undefined),< 4.00
7,Cc1cc(C)c(SC2=C(O)CC(c3ccccc3)CC2=O)nc1C#N (centres undefined),5.25
8,O=C1CC(c2ccccc2)CC(O)=C1Sc1ncc[nH]1 (centres undefined),6.06
9,O=C1CC(c2c(Br)cccc2Br)CC(O)=C1Sc1ccccc1Cl (centres undefined),< 4.00
10,Cc1cccc(C)c1C1CC(=O)C(Sc2ccccc2Cl)=C(O)C1 (centres undefined),< 4.00
11,O=C1CC(c2c(C(F)(F)F)cccc2C(F)(F)F)CC(O)=C1Sc1ccccc1Cl (centres undefined),< 4.00
12,N#Cc1ccccc1SC1=C(O)CC(c2ccccc2Cl)CC1=O (centres undefined),< 4.00
13,N#Cc1ccccc1SC1=C(O)CC(c2ccc(Cl)cc2)CC1=O (centres undefined),< 4.00
14,Cc1cccc(C)c1C1CC(=O)C(Sc2ccccc2C#N)=C(O)C1 (centres undefined),< 4.00

# The remaining lines, values ahead:
row,pIC50,SMILES
1,< 4.00,N#Cc1ccccc1SC1=C(O)CC(c2c(Cl)cccc2Cl)CC1=O (centres undefined)
2,< 4.00,N#Cc1ccccc1SC1=C(O)CC(c2c(Cl)cccc2Br)CC1=O (centres undefined)
3,< 4.00,O=C1CC(c2c(F)cccc2Cl)CC(O)=C1Sc1ccccc1Cl (centres undefined)
4,< 4.00,O=C1CC(c2c(Cl)cccc2C(F)(F)F)CC(O)=C1Sc1ccccc1Cl (centres undefined)
5,5.13,CSc1nnc(SC2=C(O)CC(c3ccccc3)CC2=O)s1 (centres undefined)
6,5.68,Cc1ccc2nc(SC3=C(O)CC(c4ccccc4)CC3=O)[nH]c2c1 (centres undefined)
7,< 4.00,O=C1CC(c2c(Cl)ccc(Br)c2Cl)CC(O)=C1Sc1ccccc1Cl (centres undefined)
8,< 4.00,N#Cc1ccccc1SC1=C(O)CC(c2cccc(Cl)c2)CC1=O (centres undefined)
9,< 4.00,N#Cc1ccccc1SC1=C(O)CC(c2c(Cl)cccc2C(F)(F)F)CC1=O (centres undefined)
10,< 4.00,N#Cc1ccccc1SC1=C(O)CC(c2c(Br)cccc2Br)CC1=O (centres undefined)
